{"source": "patent US8895261B2", "about": "“Use of fluorescent saccharide-based derivative” (I-Shou University, priority 2012, dated 2014)", "tested_on": "fibroblast 3T3 cells", "experiment": "Cellular uptake of fluorescent saccharide-based derivative in fibroblast 3T3 cells (fluorescence microscopy)", "format": "cell-based", "settings": "100 μl of 0.5 mg/ml added to 3T3 cells, reacting overnight; FIG. 2G", "procedure": "1. Cultivate the fibroblast 3T3 cells in a DMEM medium (the DMEM medium contains 10% fetal bovine serum, 5 mM pyruvic acid, and antibiotics). The cells are cultivated in an incubator containing 5% CO2.\n2. When the cells grow and occupy 80% of the bottom of the culture flask through cell division, suck out the culture medium and wash with 1×PBS, then add 0.05% trypsin to react for 1 minute in order to separate the cells, and add 5 ml culture medium, then centrifuge with […] for 10 minutes.\n3. After centrifugation, remove the supernatant, then add 5 ml of culture medium, and evenly mix the cells and the culture medium. Take 30 μl of the cell solution and mix with 270 μl of trypan blue, then take 100 μl and place on a cytometer, and count the cell number using erythrocytomertry.\n4. After counting the cells, adjust the cell number to 1×10^4 cells/ml, and take 1 ml of the cells and plant into a 24-well culture plate containing a glass slide, then place the cells in a cell incubator at 37° C. and 5% CO2. Incubate for 1 day, and then add 100 μl of 0.5 mg/ml glucosylglycine. After reacting overnight, wash twice with 1×PBS (10 minutes/turn).\n5. Add 4% paraformaldehyde to the culture plate, and place in room temperature for twenty minutes to fix the cells, then remove the paraformaldehyde and wash 3 times with 1×PBS (10 minutes/turn).\n6. […]", "data": [{"molecule": "O=C(O)CNC1O[C@H](CO)[C@@H](O)[C@H](O)[C@H]1O", "note": "(stereo partly drawn) [glucosylglycine, D-glucosylglycine]", "values": [{"measurement": "cell uptake (cells emit fluorescence after being fed)", "result": "uptakable by cells"}]}]}
